Results taken from ChEMBL document CHEMBL3994622, “Design and synthesis of new RAF kinase-inhibiting antiproliferative quinoline derivatives. Part 2: Diarylurea derivatives” (Eur J Med Chem, 2017).

Legend:
Format in all cases: functional
HT-29 [1] = assay: Growth inhibition of human HT-29 cells assessed as cell growth at 0.01 uM incubated for 48 hrs by sulforhodamine B assay relative to control; conditions: HT-29, 48 h, read-out: Activity
MDA-MB-231 [2] = assay: Growth inhibition of human MDA-MB-231 cells assessed as cell growth at 0.01 uM incubated for 48 hrs by sulforhodamine B assay relative to control; conditions: MDA-MB-231, 48 h, read-out: Activity
BT-549 = assay: Growth inhibition of human BT549 cells assessed as cell growth at 0.01 uM incubated for 48 hrs by sulforhodamine B assay relative to control; conditions: BT-549, 48 h, read-out: Activity
EKVX = assay: Growth inhibition of human EKVX cells assessed as cell growth at 0.1 uM incubated for 48 hrs by sulforhodamine B assay relative to control; conditions: read-out: Activity
OVCAR-8 = assay: Growth inhibition of human OVCAR8 cells assessed as cell growth at 0.1 uM incubated for 48 hrs by sulforhodamine B assay relative to control; conditions: OVCAR-8, 48 h, read-out: Activity
NCI/ADR-RES [3] = assay: Growth inhibition of human NCI/ADR-RES cells assessed as cell growth at 0.1 uM incubated for 48 hrs by sulforhodamine B assay relative to control; conditions: read-out: Activity
MDA-MB-231 [4] = assay: Growth inhibition of human MDA-MB-231 cells assessed as cell growth at 0.1 uM incubated for 48 hrs by sulforhodamine B assay relative to control; conditions: MDA-MB-231, 48 h, read-out: Activity
CCRF-CEM = assay: Growth inhibition of human CCRF-CEM cells assessed as cell growth at 1 uM incubated for 48 hrs by sulforhodamine B assay relative to control; conditions: read-out: Activity
SNB-19 [5] = assay: Growth inhibition of human SNB19 cells assessed as cell growth at 1 uM incubated for 48 hrs by sulforhodamine B assay relative to control; conditions: SNB-19, 48 h, read-out: Activity
M14 [6] = assay: Growth inhibition of human M14 cells assessed as cell growth at 1 uM incubated for 48 hrs by sulforhodamine B assay relative to control; conditions: M14, 48 h, read-out: Activity
TK-10 = assay: Growth inhibition of human TK10 cells assessed as cell growth at 1 uM incubated for 48 hrs by sulforhodamine B assay relative to control; conditions: TK-10, 48 h, read-out: Activity
K562 = assay: Growth inhibition of human K562 cells assessed as cell growth at 10 uM incubated for 48 hrs by sulforhodamine B assay relative to control; conditions: K562, 48 h, read-out: Activity
NCI/ADR-RES [7] = assay: Growth inhibition of human NCI/ADR-RES cells assessed as cell growth at 10 uM incubated for 48 hrs by sulforhodamine B assay relative to control; conditions: read-out: Activity
COLO 205 = assay: Growth inhibition of human COLO205 cells assessed as cell growth at 100 uM incubated for 48 hrs by sulforhodamine B assay relative to control; conditions: COLO 205, 48 h, read-out: Activity
MDA-MB-435 = assay: Growth inhibition of human MDA-MB-435 cells assessed as cell growth at 100 uM incubated for 48 hrs by sulforhodamine B assay relative to control; conditions: MDA-MB-435, 48 h, read-out: Activity
IGROV-1 = assay: Growth inhibition of human IGROV1 cells assessed as cell growth at 100 uM incubated for 48 hrs by sulforhodamine B assay relative to control; conditions: IGROV-1, 48 h, read-out: Activity
A498 [8] = assay: Growth inhibition of human A498 cells assessed as cell growth at 100 uM incubated for 48 hrs by sulforhodamine B assay relative to control; conditions: A498, 48 h, read-out: Activity
SR = assay: Growth inhibition of human SR cells assessed as cell growth at 0.003 uM incubated for 48 hrs by sulforhodamine B assay relative to control; conditions: read-out: Activity
SNB-19 [9] = assay: Growth inhibition of human SNB19 cells assessed as cell growth at 0.003 uM incubated for 48 hrs by sulforhodamine B assay relative to control; conditions: SNB-19, 48 h, read-out: Activity
A498 [10] = assay: Growth inhibition of human A498 cells assessed as cell growth at 0.003 uM incubated for 48 hrs by sulforhodamine B assay relative to control; conditions: A498, 48 h, read-out: Activity
PC-3 = assay: Growth inhibition of human PC3 cells assessed as cell growth at 0.003 uM incubated for 48 hrs by sulforhodamine B assay relative to control; conditions: PC-3, 48 h, read-out: Activity
MDA-MB-231 [11] = assay: Growth inhibition of human MDA-MB-231 cells assessed as cell growth at 0.003 uM incubated for 48 hrs by sulforhodamine B assay relative to control; conditions: MDA-MB-231, 48 h, read-out: Activity
Malme-3M [12] = assay: Growth inhibition of human MALME-3M cells assessed as cell growth at 0.03 uM incubated for 48 hrs by sulforhodamine B assay relative to control; conditions: read-out: Activity
SK-MEL-2 = assay: Growth inhibition of human SK-MEL-2 cells assessed as cell growth at 0.03 uM incubated for 48 hrs by sulforhodamine B assay relative to control; conditions: SK-MEL-2, 48 h, read-out: Activity
SK-MEL-5 = assay: Growth inhibition of human SK-MEL-5 cells assessed as cell growth at 0.3 uM incubated for 48 hrs by sulforhodamine B assay relative to control; conditions: SK-MEL-5, 48 h, read-out: Activity
OVCAR-3 = assay: Growth inhibition of human OVCAR3 cells assessed as cell growth at 0.3 uM incubated for 48 hrs by sulforhodamine B assay relative to control; conditions: OVCAR-3, 48 h, read-out: Activity
NCI/ADR-RES [13] = assay: Growth inhibition of human NCI/ADR-RES cells assessed as cell growth at 0.3 uM incubated for 48 hrs by sulforhodamine B assay relative to control; conditions: read-out: Activity
SN12C = assay: Growth inhibition of human SN12C cells assessed as cell growth at 0.3 uM incubated for 48 hrs by sulforhodamine B assay relative to control; conditions: read-out: Activity
Malme-3M [14] = assay: Growth inhibition of human MALME-3M cells assessed as cell growth at 3 uM incubated for 48 hrs by sulforhodamine B assay relative to control; conditions: read-out: Activity
M14 [15] = assay: Growth inhibition of human M14 cells assessed as cell growth at 3 uM incubated for 48 hrs by sulforhodamine B assay relative to control; conditions: M14, 48 h, read-out: Activity
SK-OV-3 = assay: Growth inhibition of human SKOV3 cells assessed as cell growth at 3 uM incubated for 48 hrs by sulforhodamine B assay relative to control; conditions: SK-OV-3, 48 h, read-out: Activity
RXF 393 = assay: Growth inhibition of human RXF393 cells assessed as cell growth at 3 uM incubated for 48 hrs by sulforhodamine B assay relative to control; conditions: RXF 393, 48 h, read-out: Activity
NCI-H226 = assay: Growth inhibition of human NCI-H226 cells assessed as cell growth at 30 uM incubated for 48 hrs by sulforhodamine B assay relative to control; conditions: NCI-H226, 48 h, read-out: Activity
HCT-15 = assay: Growth inhibition of human HCT15 cells assessed as cell growth at 30 uM incubated for 48 hrs by sulforhodamine B assay relative to control; conditions: HCT-15, 48 h, read-out: Activity
HT-29 [16] = assay: Growth inhibition of human HT-29 cells assessed as cell growth at 30 uM incubated for 48 hrs by sulforhodamine B assay relative to control; conditions: HT-29, 48 h, read-out: Activity

| SMILES | growth at 0.01 µM (HT-29 [1]) | growth at 0.01 µM (MDA-MB-231 [2]) | growth at 0.01 µM (BT-549) | growth at 0.1 µM (EKVX) | growth at 0.1 µM (OVCAR-8) | growth at 0.1 µM (NCI/ADR-RES [3]) | growth at 0.1 µM (MDA-MB-231 [4]) | growth at 1 µM (CCRF-CEM) | growth at 1 µM (SNB-19 [5]) | growth at 1 µM (M14 [6]) | growth at 1 µM (TK-10) | growth at 10 µM (K562) | growth at 10 µM (NCI/ADR-RES [7]) | growth at 100 µM (COLO 205) | growth at 100 µM (MDA-MB-435) | growth at 100 µM (IGROV-1) | growth at 100 µM (A498 [8]) | growth at 0.003 µM (SR) | growth at 0.003 µM (SNB-19 [9]) | growth at 0.003 µM (A498 [10]) | further results |
| --- | --- | --- | --- | --- | --- | --- | --- | --- | --- | --- | --- | --- | --- | --- | --- | --- | --- | --- | --- | --- | --- |
| COc1cc2cc(Oc3ccc(NC(=O)Nc4ccc(Cl)c(Cl)c4)cc3)c(C)nc2cc1OC | 108% | 93% | 78% | 93% | 100% | 100% | 92% | 78% | 92% | 83% | 114% | 15% | 14% | -100% | -45% | -15% | -56% | – | – | – | – |
| COc1cc2cc(Oc3ccc(NC(=O)Nc4ccc(Cl)c(C(F)(F)F)c4)cc3)c(C)nc2cc1OC | – | – | – | – | – | – | – | – | – | – | – | – | – | – | – | – | – | 99% | 94% | 91% | growth at 0.003 µM (PC-3): 95%; growth at 0.003 µM (MDA-MB-231 [11]): 101%; growth at 0.03 µM (Malme-3M [12]): 100%; growth at 0.03 µM (SK-MEL-2): 97%; growth at 0.3 µM (SK-MEL-5): 94%; growth at 0.3 µM (OVCAR-3): 95%; growth at 0.3 µM (NCI/ADR-RES [13]): 94%; growth at 0.3 µM (SN12C): 94%; growth at 3 µM (Malme-3M [14]): 12%; growth at 3 µM (M14 [15]): 18%; growth at 3 µM (SK-OV-3): 17%; growth at 3 µM (RXF 393): 10%; growth at 30 µM (NCI-H226): -49%; growth at 30 µM (HCT-15): -76%; growth at 30 µM (HT-29 [16]): -82% |
| COc1cc2cc(Oc3ccc(NC(=O)Nc4cc(C(F)(F)F)cc(C(F)(F)F)c4)cc3)c(C)nc2cc1OC | 97% | 101% | 91% | 89% | 110% | 96% | 98% | 39% | 39% | 50% | 81% | -47% | -54% | -79% | -63% | -63% | -93% | – | – | – | – |
| Cc1nc2cc(O)c(O)cc2cc1Oc1ccc(NC(=O)Nc2ccc(Cl)c(Cl)c2)cc1 | – | – | – | – | – | – | – | – | – | – | – | – | – | – | – | – | – | 100% | 94% | 85% | growth at 0.003 µM (PC-3): 104%; growth at 0.003 µM (MDA-MB-231 [11]): 110%; growth at 0.03 µM (Malme-3M [12]): 101%; growth at 0.03 µM (SK-MEL-2): 113%; growth at 0.3 µM (SK-MEL-5): 97%; growth at 0.3 µM (OVCAR-3): 109%; growth at 0.3 µM (NCI/ADR-RES [13]): 97%; growth at 0.3 µM (SN12C): 105%; growth at 3 µM (Malme-3M [14]): 94%; growth at 3 µM (M14 [15]): 86%; growth at 3 µM (SK-OV-3): 103%; growth at 3 µM (RXF 393): 86%; growth at 30 µM (NCI-H226): 9%; growth at 30 µM (HCT-15): 9%; growth at 30 µM (HT-29 [16]): 13% |
